Test results taken from patent US20040200144A1, “Plant growth regulator and a method of producing the regulator” (Dainichiseika Color & Chemicals Mfg. Co., Ltd., priority 2003, published 2004).

How the values were obtained:
Type in all cases: in vivo
[1] = tested on: radish young plants; assay: Dwarfing test of radish young plant; conditions: for Plant Height / Dwarfing Rate: 5 ml per cell on 4th day, measured 20th day; for Dwarfing Rate: vs comparative group
Experimental: (§1) 50 g of sodium tripolyphosphate was dissolved in 400 ml of distilled water at 80° C., 17.5 g of cinnamic acid was added to the sodium tripolyphosphate solution and dissolved by stirring, the resultant solution was diluted with distilled water until the total volume of solution was 500 ml, and thus 3.5% cinnamic acid aqueous solution (pH 6.5) was prepared. The aqueous solution was further diluted with distilled water 70 times or 17.5 times, and 0.05% cinnamic acid aqueous solution and 0.2% cinnamic acid aqueous solution were prepared, respectively.
(§2) Nursery soil for house use was filled into paper joint pots (each with 24 cells: 34×43×50 mm/cell), water was sufficiently given to the soil, and seeds of carrots were sowed. After seeding, the pot was placed in the same greenhouse as described above to sprout. Subsequently, on the 5th day, the cinnamic aqueous acid solutions were added to the nursery soil in the joint pots. One of the joint pots (24 cells) was prepared as a 0.05% cinnamic acid aqueous solution addition group, and 5 ml of the 0.05% cinnamic acid aqueous solution was added to the nursery soil of each cell. Another one of the join pots was prepared as a 0.2% cinnamic acid aqueous solution addition group, and 5 ml of the 0.2% cinnamic acid aqueous solution was added to the nursery soil of each cell. The other one of the joint pots was prepared as a comparative group in which 5 ml of water is added to each cell, instead of the cinnamic acid aqueous solution. Subsequently, the cultivation of carrot young plants in each group was continued under general conditions. On the 27th day, the heights of young plants in each group were measured, the dwarfing rate (%) was calculated, and the dwarfing effect of cinnamic acid aqueous solution on carrot young plants was examined. […].
In the same way as in Example 12 except that seeds of radish were sowed, the dwarfing effect of cinnamic acid aqueous solution on radish young plants was examined. […]

[2] = tested on: prince melon young plants; assay: Dwarfing test of prince melon young plant; conditions: for Plant Height / Dwarfing Rate: 5 ml per cell on 7th day, measured 27th day; for Dwarfing Rate: vs comparative group
Experimental: as §1, §2
In the same way as in Example 12 except that seeds of tomato were sowed, and that the cinnamic acid solutions were added to the nursery soil of the joint pot on the 7th day, the dwarfing effect of cinnamic acid aqueous solution on tomato young plants was examined. […].
In the same way as in Example 17 except that seeds of watermelon were sowed, and that plant heights were measured on the 27th day, the dwarfing effect of cinnamic acid aqueous solution on watermelon young plants was examined. […].
In the same way as in Example 21 except that seeds of prince melon were sowed, the dwarfing effect of cinnamic acid aqueous solution on prince melon young plants was examined. […]

[3] = tested on: eggplant young plants; assay: Dwarfing test of eggplant young plant; conditions: for Plant Height / Dwarfing Rate: 5 ml per cell on 7th day, measured 25th day; for Dwarfing Rate: vs comparative group
Experimental: After seeding, the pot was placed in the same greenhouse as described above to sprout. Subsequently, on the 5th day, the cinnamic aqueous acid solutions were added to the nursery soil in the joint pots. One of the joint pots (24 cells) was prepared as a 0.05% cinnamic acid aqueous solution addition group, and 5 ml of the 0.05% cinnamic acid aqueous solution was added to the nursery soil of each cell. Another one of the join pots was prepared as a 0.2% cinnamic acid aqueous solution addition group, and 5 ml of the 0.2% cinnamic acid aqueous solution was added to the nursery soil of each cell. […] Subsequently, the cultivation of carrot young plants in each group was continued under general conditions. On the 27th day, the heights of young plants in each group were measured, the dwarfing rate (%) was calculated, and the dwarfing effect of cinnamic acid aqueous solution on carrot young plants was examined. From the results in Table 5, it became evident that the 0.05% and 0.2% cinnamic acid aqueous solutions are effective in dwarfing carrot young plants. In the same way as in Example 5 except that seeds of cauliflower were sowed, the cinnamic acid solutions were added to the nursery soil in the joint pot on the 4th day, and that heights of young plants in each group were measured on the 20th day, the dwarfing effect of cinnamic acid aqueous solution on cauliflower young plants was examined. From the results in Table 12, it became evident that the cinnamic acid aqueous solutions are effective in dwarfing cauliflower young plants. In the same way as in Example 12 except that seeds of tomato were sowed, and that the cinnamic acid solutions were added to the nursery soil of the joint pot on the 7th day, the dwarfing effect of cinnamic acid aqueous solution on tomato young plants was examined. From the results in Table 17, it became evident that the cinnamic acid aqueous solutions are effective in dwarfing tomato young plants. In the same way as in Example 17 except that seeds of eggplant were sowed, and that plant heights were measured on the 25th day, the dwarfing effect of cinnamic acid aqueous solution on eggplant young plants was examined. From the results in Table 19, it became evident that the cinnamic acid aqueous solutions are effective in dwarfing eggplant young plants.

[4] = tested on: broccoli young plants; assay: Dwarfing test of broccoli young plant; conditions: for Plant Height / Dwarfing Rate: 5 ml per cell on 4th day, measured 20th day; for Dwarfing Rate: vs comparative group
Experimental: as §1, §2
In the same way as in Example 12 except that seeds of broccoli were sowed, the dwarfing effect of cinnamic acid aqueous solution on broccoli young plants was examined. […]

[5] = tested on: hydrangea young plants; assay: Dwarfing test of hydrangea young plant; conditions: for Plant Height / Dwarfing Rate: 100 ml per pot on 42nd day, measured 72nd day; for Dwarfing Rate: vs comparative group
Experimental: Dwarfing rate (%)=[(the plant height of the comparative group)−(the plant height of an addition group)/the plant height of the comparative group]×100 […] A cutting of a fresh shoot of hydrangea was planted in the soil of each pot (diameter of 10.5 cm and depth of 8.5 cm) and cultivated continuously after the cuttage. On the 42nd day, top pinching was performed, a young plant was adjusted to have a height of 8 cm and four leaves and planted and fixed in a pot (diameter of 14.5 cm and depth of 14.5 cm) At this point, 100 ml of 0.2% or 0.4% cinnamic acid aqueous solution prepared as described above was added to the nursery soil of 8 pots, and thus 0.2% cinnamic acid aqueous solution addition group and 0.4% cinnamic acid aqueous solution addition group were prepared. Further, 8 pots were prepared as a comparative group on which general watering was performed. The cultivation of young plants of each group was continued. On the 72nd day, heights of young plants in each group were measured, the dwarfing rate (%) was calculated, and the dwarfing effect of cinnamic acid aqueous solution on hydrangea was examined. From the results in Table 26, it became evident that the cinnamic acid solutions are effective in dwarfing hydrangea young plants.

With `O=C(O)C=Cc1ccccc1` [cinnamic acid] the “Plant Height” value ([1]; 0.05% aqueous solution) was 8.1 cm, the “Dwarfing Rate” value ([1]; 0.05% aqueous solution) was 11.0% and the “Plant Height” value ([1]; 0.2% aqueous solution) was 7.1 cm. For the same compound, the “Dwarfing Rate” value ([1]; 0.2% aqueous solution) was 22.0%, the dwarfing effect ([1]; radish young plants, 0.05% and 0.2% aqueous solutions) was “effective” and the “Plant Height” value ([2]; 0.05% aqueous solution) was 5.3 cm. The “Dwarfing Rate” value ([2]; 0.05% aqueous solution) was 5.4%, the “Plant Height” value ([2]; 0.2% aqueous solution) was 4.1 cm and the “Dwarfing Rate” value ([2]; 0.2% aqueous solution) was 26.8%. The dwarfing effect ([2]; prince melon young plants, 0.05% and 0.2% aqueous solutions) was “effective”, the “Plant Height” value ([3]; 0.05% aqueous solution) was 2.9 cm and the “Dwarfing Rate” value ([3]; 0.05% aqueous solution) was 12.1%. For the same compound, the “Plant Height” value ([3]; 0.2% aqueous solution) was 2.3 cm, the “Dwarfing Rate” value ([3]; 0.2% aqueous solution) was 30.3% and the dwarfing effect ([3]; eggplant young plants, 0.05% and 0.2% aqueous solutions) was “effective”. For the same compound, the “Plant Height” value ([4]; 0.05% aqueous solution) was 8.8 cm, the “Dwarfing Rate” value ([4]; 0.05% aqueous solution) was 6.4% and the “Plant Height” value ([4]; 0.2% aqueous solution) was 6.4 cm. The “Dwarfing Rate” value ([4]; 0.2% aqueous solution) was 31.9%, the dwarfing effect ([4]; broccoli young plants, 0.05% and 0.2% aqueous solutions) was “effective” and the “Plant Height” value ([5]; 0.2% aqueous solution) was 15.1 cm. For the same compound, the “Dwarfing Rate” value ([5]; 0.2% aqueous solution) was 2.6%, the “Plant Height” value ([5]; 0.4% aqueous solution) was 11.7 cm and the “Dwarfing Rate” value ([5]; 0.4% aqueous solution) was 24.5%. For the same compound, the dwarfing effect ([5]; hydrangea young plants, 0.2% and 0.4% aqueous solutions) was “effective”.
